Assay results as given in PMC9326216, “Treatment of Cardiovascular Dysfunction with PDE3-Inhibitors in Moderate and Severe Hypothermia—Effects on Cellular Elimination of Cyclic Adenosine Monophosphate and Cyclic Guanosine Monophosphate” (Frontiers in Physiology, 2022).
Read-outs that look alike come from different tables or passages of the source.

Experiments:
ABCC5 = type: biochemical
Method: Freshly collected EDTA blood from healthy donors (n = 35) was prepared at 0°C–4°C, starting by separating the erythrocytes from plasma by centrifugation at 2,300 g for approximately 15 min. […] Lysis followed thereafter, with ten volumes of 5 mM Tris-HCl, 0.5 mM EGTA, 4 mM KCl (pH 8.1) and washed by repeated centrifugation at 20,000 g for 20 min and resuspension in the same buffer. Vesiculation was initiated by adding 39 volumes of a […] buffer ([…] Tris-HCl, pH 8.2) to one volume of cell suspension and completed by forcing the solution five times through a 27-gauge syringe needle to promote homogenization of the membranes. […] The resulting IOVs, which still contained ABC-transporters in the membrane, enabled us to control the intracellular environment, in this case the surrounding medium, and collect the cyclic nucleotides within. […] Radioactive labeled (^3H)-cAMP or (^3H)-cGMP (Perkin Elmer, Boston, MA, United States) were added to the incubation solutions in the concentration 20 and 2 μM, respectively, depending on the transporter examined, together with the appointed study drug in concentrations up to 1 mM. […] Next step was to collect the IOVs, which was done by filtration through a nitrocellulose membrane (Bio-Rad Laboratories, Feldkirchen, Germany), and then drying it. The resulting collection of radioactivity upon the filter, was later quantified by using a Packard TopCount NXT (Packard, Downers Grove, IL, United states) after adding scintillation fluid (MicroScint-O, PerkinElmer, Groningen, Netherlands).
IC50 and Ki values were calculated for each of the drugs, both for their ability to inhibit cAMP- and cGMP- efflux, as well as PDE3 and PDE5 activity. […] Inhibition curves were created accordingly, both with and without adjustment for normothermic control.

PDE5 = target: T1, PDE5 (Homo sapiens, UniProt O76074); assay: Phosphodiesterase assay: inhibition of cGMP hydrolysis by recombinant PDE5; type: biochemical; settings: for IC50: 5 µM cGMP, 30 min; for Ki: Cheng-Prusoff
T1 construct: purchased Sigma-Aldrich, St. Louis, United States
Method: The study drugs were tested upon their ability to hinder cAMP and cGMP hydrolysis by inhibiting PDE3 and PDE5 respectively. Either 5 µM cAMP or cGMP (Sigma-Aldrich, St. Louis, MO, United States) were used as substrates for the enzymes. The reaction was initiated by adding PDE to the assay solution in designated Eppendorf tubes, containing fresh incubation buffer (10 mM Tris, 8.2 mM Propionic acid, 3 mM Magnesium acetate, 1.5 mM EGTA and 0.5 mg/ml BSA, 0.2 mM DTT) selected substrate (cAMP or cGMP) and inhibitor. The reaction was initiated by adding 0.016 units/µl incubate of PDE3 (Abcam, Cambridge, United Kingdom), or 0.022 units/µl incubate of PDE5 (Sigma-Aldrich, St. Louis, United States). Control samples were free of drug and were either with or without PDE. The incubation time was 30 min in the selected temperature. Reaction was stopped by adding 99.9% methanol to the solutions. Internal standards of cGMP-13C5, cAMP-13C5, AMP-13C5 (Toronto Research Chemicals Inc., Ontario, Canada) and GMP-15N5 (Sigma-Aldrich, St. Louis, MO, United States) were added to each sample, before MS analysis.
Liquid chromatography tandem mass spectrometry (LC-MS) was used to assess concentrations of the inhibitors for experiments performed to determine intracellular access of these drugs, as well as to quantify levels of cAMP/AMP and cGMP/GMP for the PDE3-and PDE5-inhibition plots. Internal standards were used, as described previously.
IC50 and Ki values were calculated for each of the drugs, both for their ability to inhibit cAMP- and cGMP- efflux, as well as PDE3 and PDE5 activity. IC50 values were derived according to [Chou (1976)], and Ki values according to [Cheng and Prusoff (1973)]. Inhibition curves were created accordingly, both with and without adjustment for normothermic control.

PDE3 = settings: ref Pathak et al., 2013; cited from earlier work
PDE3, sequence (Q14432 whole entry): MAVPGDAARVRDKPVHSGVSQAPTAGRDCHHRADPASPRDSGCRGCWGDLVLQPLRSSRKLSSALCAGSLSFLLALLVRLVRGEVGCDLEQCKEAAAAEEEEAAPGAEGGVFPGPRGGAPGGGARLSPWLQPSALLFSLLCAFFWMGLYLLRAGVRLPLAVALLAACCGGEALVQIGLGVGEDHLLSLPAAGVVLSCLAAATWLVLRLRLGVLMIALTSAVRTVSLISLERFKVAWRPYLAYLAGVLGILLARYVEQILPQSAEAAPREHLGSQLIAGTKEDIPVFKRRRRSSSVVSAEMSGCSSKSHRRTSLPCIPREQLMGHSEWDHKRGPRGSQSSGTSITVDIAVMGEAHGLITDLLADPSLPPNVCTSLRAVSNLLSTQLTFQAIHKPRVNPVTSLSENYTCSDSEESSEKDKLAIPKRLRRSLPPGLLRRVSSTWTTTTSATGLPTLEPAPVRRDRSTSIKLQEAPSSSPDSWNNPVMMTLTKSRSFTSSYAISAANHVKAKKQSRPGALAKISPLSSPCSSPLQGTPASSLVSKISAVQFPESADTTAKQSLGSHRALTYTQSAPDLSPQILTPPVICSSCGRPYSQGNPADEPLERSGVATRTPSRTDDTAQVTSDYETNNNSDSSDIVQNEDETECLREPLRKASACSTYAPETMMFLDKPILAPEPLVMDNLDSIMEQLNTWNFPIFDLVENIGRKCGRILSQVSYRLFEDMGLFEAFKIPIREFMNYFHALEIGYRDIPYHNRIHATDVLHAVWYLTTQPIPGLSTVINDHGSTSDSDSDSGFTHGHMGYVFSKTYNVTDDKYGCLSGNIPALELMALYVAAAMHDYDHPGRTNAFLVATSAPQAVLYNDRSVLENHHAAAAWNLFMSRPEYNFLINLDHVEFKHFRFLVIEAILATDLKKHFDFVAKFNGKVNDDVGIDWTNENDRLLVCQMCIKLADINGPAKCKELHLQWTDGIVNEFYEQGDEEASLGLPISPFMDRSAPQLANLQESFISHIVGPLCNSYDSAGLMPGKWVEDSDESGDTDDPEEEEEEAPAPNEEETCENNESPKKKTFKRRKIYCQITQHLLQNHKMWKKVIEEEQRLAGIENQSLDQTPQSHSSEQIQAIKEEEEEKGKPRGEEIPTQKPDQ

C[C@@H]1CC(=O)NN=C1c1ccc(NN=C(C#N)C#N)cc1 [Levosimendan]
Drug selectivity (IC50)/(IC50): (cGMP-efflux)/(PDE5) inhibition (ABCC5; 20°C): 0.045
Drug selectivity (IC50)/(IC50): (cGMP-efflux)/(PDE5) inhibition (ABCC5; 24°C): 0.124
Drug selectivity (IC50)/(IC50): (cGMP-efflux)/(PDE5) inhibition (ABCC5; 28°C): 0.065
Drug selectivity (IC50)/(IC50): (cGMP-efflux)/(cAMP-efflux) inhibition (ABCC5; 28°C): 0.44
Drug selectivity (IC50)/(IC50): (cGMP-efflux)/(PDE5) inhibition (ABCC5; 32°C): 0.081
Drug selectivity (IC50)/(IC50): (cGMP-efflux)/(cAMP-efflux) inhibition (ABCC5; 32°C): 0.80
Drug selectivity (IC50)/(IC50): (cGMP-efflux)/(PDE5) inhibition (ABCC5; 34°C): 0.093
Drug selectivity (IC50)/(IC50): (cGMP-efflux)/(cAMP-efflux) inhibition (ABCC5; 34°C): 1.09
Drug selectivity (IC50)/(IC50): (cGMP-efflux)/(PDE5) inhibition (ABCC5; 37°C): 0.184
Drug selectivity (IC50)/(IC50): (cGMP-efflux)/(cAMP-efflux) inhibition (ABCC5; 37°C): 3.03
IC50 (PDE5; 20°C): 157 ± 27.5 µM
Ki (PDE5; 20°C): 39.9 ± 6.97 µM
IC50 (PDE5; 24°C): 148 ± 26.1 µM
Ki (PDE5; 24°C): 37.6 ± 6.63 µM
IC50 (PDE5; 28°C): 183 ± 23 µM
Ki (PDE5; 28°C): 46.4 ± 5.85 µM
IC50 (PDE5; 32°C): 162 ± 22.5 µM
Ki (PDE5; 32°C): 41.2 ± 5.71 µM
IC50 (PDE5; 34°C): 150 ± 13.5 µM
Ki (PDE5; 34°C): 38 ± 3.41 µM
IC50 (PDE5; 37°C): 155 ± 4.74 µM
Ki (PDE5; 37°C): 39.2 ± 1.2 µM
Concentration at which it acts as a PDE3 inhibitor (PDE3): > 0.3 µM

Nc1cc(-c2ccncc2)c[nH]c1=O [Amrinone]
IC50 (PDE5; 20°C): 105 ± 8.04 µM
Ki (PDE5; 20°C): 26.7 ± 2.04 µM
IC50 (PDE5; 24°C): 99.1 ± 4.2 µM
Ki (PDE5; 24°C): 25.1 ± 1.07 µM
IC50 (PDE5; 28°C): 95 ± 7.29 µM
Ki (PDE5; 28°C): 24.1 ± 1.85 µM
IC50 (PDE5; 32°C): 84.5 ± 5.94 µM
Ki (PDE5; 32°C): 21.5 ± 1.51 µM
IC50 (PDE5; 34°C): 91.9 ± 3.65 µM
Ki (PDE5; 34°C): 23.3 ± 0.93 µM
IC50 (PDE5; 37°C): 110 ± 12.8 µM
Ki (PDE5; 37°C): 27.8 ± 3.25 µM
